Among the data in PubChem BioAssay (NCI) are GI50 and TGI values, retold here.

The structures appear in SMILES notation.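 Growth conditions: 96-well plates. Treatment: test compound, 48 hours, 5 concentrations. Analysis: linear interpolation between bracketing concentrations; unreached endpoints set to highest concentration. At the GI50, growth is halved. TGI is the concentration that stops growth completely.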

Test systems include 786-0 renal; HCT-116 colon; HOP-62 NSCLC; HOP-92 NSCLC; M14 melanoma; NCI-H522 lung; RXF 393 renal; SF-268 CNS; SK-MEL-2 melanoma; SN12C renal.
What all share (assay): NCI anticancer screen, dose series, 48 h

With `O=C(Oc1ccccc1)c1cc(O)c(O)c(O)c1`, the GI50 in the test on 786-0 renal is 11.2 µM; with HCT-116 colon, 11.7 µM; with HOP-62 NSCLC, 5.13 µM; with HOP-92 NSCLC it was 8.75 µM; with M14 melanoma it was 11.9 µM; with NCI-H522 lung, 4.1 µM. Moreover, the GI50 with RXF 393 renal was 25.6 µM; with SF-268 CNS it was 8.15 µM; with SK-MEL-2 melanoma it was 35.9 µM; in the test with SN12C renal, 9.73 µM. Besides, the TGI is 50 µM with 786-0 renal; above 100 µM with HCT-116 colon; 70.3 µM with HOP-62 NSCLC; 81.4 µM in the test on HOP-92 NSCLC; 34 µM with M14 melanoma; 42.5 µM in the test on NCI-H522 lung. Moreover, the TGI with RXF 393 renal, with SF-268 CNS, with SK-MEL-2 melanoma and with SN12C renal was above 100 µM in each case.

For the molecule `COc1cc2c(cc1OCCCCCOc1cc(-c3ccc(F)cc3)nc(C)n1)N=C[C@@H]1CCCN1C2=O`, the GI50 is above 44.9 µM with 786-0 renal; above 52.9 µM in the test on HCT-116 colon; above 50.2 µM in the test with HOP-62 NSCLC; 0.376 µM in the test on HOP-92 NSCLC; above 45.5 µM in the test with M14 melanoma; above 20.5 µM in the test with NCI-H522 lung. The GI50 with RXF 393 renal is above 32.9 µM; in the test with SF-268 CNS, above 32.5 µM; in the test on SK-MEL-2 melanoma it was above 48.3 µM; with SN12C renal it was above 44.2 µM. Moreover, the TGI with 786-0 renal was above 67.5 µM; in the test on HCT-116 colon, 98.4 µM; in the test on HOP-62 NSCLC it was above 79.4 µM; with HOP-92 NSCLC it was 6.7 µM; in the test on M14 melanoma, above 65.7 µM; with NCI-H522 lung it was above 42.3 µM. Besides, the TGI is above 54.3 µM in the test on RXF 393 renal, above 65.2 µM in the test on SF-268 CNS, above 68.7 µM with SK-MEL-2 melanoma and above 71.2 µM with SN12C renal.

Regarding `CCOC(=O)c1sc(=S)c2c(C(=O)c3ccccc3)c(C(=O)c3ccccc3)sc2c1C(=O)OCC`, the GI50 in the test with 786-0 renal was 6.8 µM; in the test on HCT-116 colon it was 4.16 µM; in the test on HOP-62 NSCLC, 9.16 µM; in the test on HOP-92 NSCLC, 4.74 µM; in the test with M14 melanoma it was 5.56 µM; in the test on NCI-H522 lung it was 2.66 µM. Besides, the GI50 with RXF 393 renal is 4.48 µM; in the test with SF-268 CNS, 3.55 µM; in the test with SK-MEL-2 melanoma, 3.51 µM; in the test with SN12C renal, 3.16 µM. Further, the TGI is above 100 µM with 786-0 renal; above 100 µM with HCT-116 colon; above 100 µM in the test with HOP-62 NSCLC; 90.1 µM in the test on HOP-92 NSCLC; above 100 µM in the test with M14 melanoma; 6.89 µM with NCI-H522 lung. Besides, the TGI was above 100 µM in the test with RXF 393 renal, 71.8 µM in the test on SF-268 CNS, 48.4 µM with SK-MEL-2 melanoma and 19.2 µM in the test on SN12C renal.

As to `CCN(CC)c1ccc(/C=N/NC(=O)c2ccc(Nc3ccnc(C(F)(F)F)c3)cc2)c(O)c1`, the GI50 was 0.188 µM in the test on 786-0 renal; 0.141 µM in the test on HCT-116 colon; 0.187 µM in the test with HOP-62 NSCLC; 1.05 µM with HOP-92 NSCLC; 0.25 µM with M14 melanoma; 0.293 µM in the test with NCI-H522 lung. The GI50 is 0.156 µM with RXF 393 renal, 0.155 µM with SF-268 CNS, 0.718 µM in the test with SK-MEL-2 melanoma and 0.395 µM with SN12C renal. The TGI with 786-0 renal is 0.447 µM; in the test on HCT-116 colon, 1.34 µM; with HOP-62 NSCLC it was 1.07 µM; in the test on HOP-92 NSCLC, above 100 µM; with M14 melanoma it was 1.42 µM; in the test on NCI-H522 lung, 2.07 µM. Moreover, the TGI in the test with RXF 393 renal was 0.44 µM; in the test on SF-268 CNS it was above 20.7 µM; with SN12C renal, above 100 µM.

On to `COC(=O)c1c2c(c(C)[n+]([O-])c1C)C(=O)C=C(NCc1ccc(Cl)cc1)C2=O`, for which the GI50 was 1.32 µM in the test with 786-0 renal; 0.249 µM in the test on HCT-116 colon; 1.15 µM in the test with HOP-62 NSCLC; 1.93 µM in the test with HOP-92 NSCLC; 0.202 µM with M14 melanoma; 0.508 µM with NCI-H522 lung. In addition, the GI50 with RXF 393 renal is 1.22 µM; in the test with SF-268 CNS, 0.747 µM; with SK-MEL-2 melanoma, 1.05 µM; in the test with SN12C renal, 0.309 µM. Besides, the TGI in the test on 786-0 renal is 3.57 µM; in the test with HCT-116 colon, 1.05 µM; with HOP-62 NSCLC, 3.46 µM; in the test on HOP-92 NSCLC, 4.09 µM; in the test on M14 melanoma, 1.68 µM; in the test on NCI-H522 lung, 2.04 µM. Moreover, the TGI in the test with RXF 393 renal worked out at 2.53 µM; with SF-268 CNS, 2.96 µM; in the test on SK-MEL-2 melanoma, 2.73 µM; in the test with SN12C renal, 1.24 µM.

On to `CC1CCC2(OC1)OC1CC3C4CC=C5CC(OC6OC(CO)C(OC7OC(C)C(OC8OC(C)C(O)C(O)C8O)C(O)C7O)C(O)C6OC6OC(C)C(O)C(O)C6O)CCC5(C)C4CCC3(C)C1C2C` (centres undefined), for which the TGI is 2.29 µM with 786-0 renal; 1.92 µM with HCT-116 colon; above 100 µM in the test with HOP-62 NSCLC; 1.9 µM in the test with HOP-92 NSCLC; 2.27 µM in the test with M14 melanoma; 2.17 µM in the test on NCI-H522 lung. Further, the TGI was found to be 2.05 µM in the test on RXF 393 renal, 2.03 µM in the test on SF-268 CNS, 2.5 µM in the test on SK-MEL-2 melanoma and 1.04 µM in the test with SN12C renal.

`O=C(Nc1ccccc1Cl)c1cnc2ccc(C3CCNCC3)cn12`: the GI50 in the test with 786-0 renal is 3.18 µM; with HCT-116 colon it was 13.4 µM; in the test on HOP-62 NSCLC, 16.8 µM; in the test with HOP-92 NSCLC, 0.703 µM; in the test with M14 melanoma it was 15.2 µM; in the test with NCI-H522 lung, 1.06 µM. In addition, the GI50 in the test on RXF 393 renal was 0.802 µM; in the test with SF-268 CNS, 9.04 µM; in the test with SK-MEL-2 melanoma it was 42.3 µM; in the test with SN12C renal, 3.71 µM. Further, the TGI was above 100 µM with 786-0 renal; above 100 µM in the test with HCT-116 colon; above 100 µM in the test with HOP-62 NSCLC; 7.28 µM in the test with HOP-92 NSCLC; 33.3 µM in the test on M14 melanoma; above 100 µM in the test with NCI-H522 lung. Besides, the TGI is 4.84 µM in the test with RXF 393 renal, above 100 µM with SF-268 CNS, above 94 µM in the test on SK-MEL-2 melanoma and above 100 µM in the test with SN12C renal.

Take `O=C(O)C(/C=C/c1ccco1)=N\Nc1nc(-c2ccc(Cl)cc2)cs1`: the GI50 in the test with 786-0 renal is 14.3 µM; in the test with HCT-116 colon it was 11.6 µM; in the test on HOP-62 NSCLC it was 16.5 µM; in the test with HOP-92 NSCLC, 10.1 µM; in the test with M14 melanoma, 12.7 µM; in the test on NCI-H522 lung, 7.61 µM. Besides, the GI50 with RXF 393 renal is 10.4 µM; in the test with SF-268 CNS, 11.1 µM; in the test with SK-MEL-2 melanoma it was 9.45 µM; in the test with SN12C renal, 13.2 µM. Also, the TGI in the test on 786-0 renal is above 50 µM; with HCT-116 colon, above 50 µM; in the test with HOP-62 NSCLC it was above 50 µM; in the test with HOP-92 NSCLC, 49.4 µM; in the test on M14 melanoma, above 50 µM; with NCI-H522 lung it was 41.3 µM. In addition, the TGI in the test with RXF 393 renal was 28.4 µM; with SF-268 CNS, above 50 µM; in the test on SK-MEL-2 melanoma, 24.8 µM; in the test with SN12C renal, above 50 µM.

On to `O=C(O)CC(Cc1ccc2c(c1)OCO2)C(=O)O` (centres undefined), for which the TGI in the test with 786-0 renal, in the test on HCT-116 colon, in the test with HOP-62 NSCLC, with HOP-92 NSCLC, in the test on M14 melanoma and in the test with NCI-H522 lung was above 100 µM throughout. Further, the TGI in the test on RXF 393 renal, in the test on SF-268 CNS, with SK-MEL-2 melanoma and with SN12C renal was above 100 µM each time.

As for `Nc1nc(-n2cccn2)nc(-n2cccn2)c1Br`, the GI50 with 786-0 renal, with HCT-116 colon, in the test with HOP-62 NSCLC, in the test with HOP-92 NSCLC, with M14 melanoma and with NCI-H522 lung was above 100 µM each time. Further, the GI50 in the test on RXF 393 renal, with SF-268 CNS, in the test on SK-MEL-2 melanoma and in the test on SN12C renal was above 100 µM each time. The TGI with 786-0 renal, in the test on HCT-116 colon, with HOP-62 NSCLC, with HOP-92 NSCLC, in the test on M14 melanoma and in the test with NCI-H522 lung was above 100 µM throughout. In addition, the TGI in the test on RXF 393 renal, with SF-268 CNS, in the test on SK-MEL-2 melanoma and in the test on SN12C renal was above 100 µM each time.

As to `C/C(=N\NC(N)=S)c1ccc2c(c1)OCO2`, the TGI in the test on 786-0 renal, in the test on HCT-116 colon, with HOP-62 NSCLC, in the test with HOP-92 NSCLC, with M14 melanoma and with NCI-H522 lung was above 100 µM throughout. Besides, the TGI with RXF 393 renal, in the test with SF-268 CNS, in the test on SK-MEL-2 melanoma and in the test on SN12C renal was above 100 µM throughout.

Consider `COc1cc2c(/C=C3/C(=O)Nc4ccccc43)c(Cl)n(Cc3ccccc3)c2cc1C`, for which the GI50 with 786-0 renal, in the test with HCT-116 colon, in the test with HOP-62 NSCLC, in the test with HOP-92 NSCLC, with M14 melanoma and in the test on NCI-H522 lung was above 100 µM each time. Also, the GI50 with RXF 393 renal, in the test on SF-268 CNS, with SK-MEL-2 melanoma and in the test with SN12C renal was above 100 µM each time. The TGI in the test with 786-0 renal, in the test on HCT-116 colon, in the test with HOP-62 NSCLC, in the test on HOP-92 NSCLC, in the test with M14 melanoma and in the test on NCI-H522 lung was above 100 µM each time. Further, the TGI in the test with RXF 393 renal, with SF-268 CNS, with SK-MEL-2 melanoma and in the test on SN12C renal was above 100 µM throughout.
